Laboratory results from US11819533B2, “Compositions and methods for the treatment of fungal infections” (Cidara Therapeutics, Inc., priority 2017, dated 2023).
“Also recorded” adds a separate entry of the source. Read-outs that look alike come from different tables or passages of the source. Starred links: 1 amine or outer side, 2 acyl side, 3 side chain; linkers in the order of their positions; H or OH if unused. Positions of bridges follow the written chain, without caps; N, C: chain ends. Non-standard residues stand in square brackets, D forms with d. Residues, ends and D or L forms follow the SMILES beside them. *: point of attachment. Orn(4R-OH,5R-OCH2CH2NMe3+) = C[N+](C)(C)CCO[C@@H](N[*:3])[C@H](O)C[C@H](N[*:1])C(=O)[*:2]; pTerphenylCO(4''-OnC5H11) = CCCCCOc1ccc(-c2ccc(-c3ccc(C(=O)*)cc3)cc2)cc1; hTyr(3S-OH,4S-OH) = N[C@H](C(=O)O)[C@H](O)[C@@H](O)c1ccc(O)cc1; Pro(3S-OH,4S-Me) = C[C@H]1CN[C@H](C(=O)O)[C@H]1O; Hyp = O=C(O)[C@@H]1C[C@@H](O)CN1

Assays:
[1] = Solubility of CD101 acetate in various media; type: physicochemical
Excerpt: Table 1 below provides the solubility of CD101 acetate in different solutions.

cynomolgus monkeys = experiment: Single-dose intravenous infusion tolerability study; type: in vivo
Method: The objective of this study was to evaluate and compare the tolerability of CD101 when administered once by either a 20-minute or 60-minute intravenous infusion to cynomolgus monkeys. In addition, a vehicle similar to the intended initial clinical formulation was assessed when administered once by 20-minute intravenous infusion up to the highest feasible dose (10 mg/kg).
This study was divided into 2 phases (Table 8). In phase 1, CD101 acetate was administered in vehicle-1 (1.25% Tween 80, 5% mannitol, 0.3% glacial acetic acid adjusted to pH 4.5±0.1) as a single 20-minute (±2 minutes) intravenous infusion to 1 animal/sex/group at 0 and 30 mg/kg (Groups 1 and 2, respectively). In addition, CD101 acetate was administered in vehicle-1 as a single 60-minute (±5 minutes) intravenous infusion to 1 animal/sex/group at 0 and 30 mg/kg (Groups 3 and 4, respectively).
Dosing was staggered so that Group 5 was dosed 2 days after Groups 1-4.

For `CCCCCOc1ccc(-c2ccc(-c3ccc(C(=O)N[C@H]4C[C@@H](O)[C@@H](OCC[N+](C)(C)C)NC(=O)[C@@H]5[C@@H](O)[C@@H](C)CN5C(=O)[C@H]([C@@H](C)O)NC(=O)[C@H]([C@H](O)[C@@H](O)c5ccc(O)cc5)NC(=O)[C@@H]5C[C@@H](O)CN5C(=O)[C@H]([C@@H](C)O)NC4=O)cc3)cc2)cc1` [CD101 acetate] ({pTerphenylCO(4''-OnC5H11)}-[Orn(4R-OH,5R-OCH2CH2NMe3+)]T[Hyp][hTyr(3S-OH,4S-OH)]T[Pro(3S-OH,4S-Me)]; lactam 1-C), the solubility ([1]; 15 mM potassium chloride, saline or isotonic, Potassium chloride (15 mM), read-out: Solubility) was > 1700 µg/mL, the solubility ([1]; 50 mM acetate buffer with 0.4% Tween 20, aqueous with cosolvent or surfactant or cyclodextrin, 50 mM Acetate buffer pH 4.5 with 0.4% Tween 20, maximum solubility not reached, read-out: Solubility) was > 31300 µg/mL and the solubility ([1]; 100 mM lactate buffer, aqueous buffer, Lactate buffer (100 mM), pH 6.5, maximum solubility not reached, read-out: Solubility) was > 48000 µg/mL. The solubility ([1]; 100 mM lactate buffer, aqueous buffer, Lactate buffer (100 mM), pH 7.4, maximum solubility not reached, read-out: Solubility) was > 51000 µg/mL, the solubility ([1]; 100 mM phosphate buffer, pH 7.4, aqueous buffer, read-out: Solubility) was 7 to 10 µg/mL and the solubility ([1]; 150 mM KCl, saline or isotonic, KCl (150 mM), read-out: Solubility) was < 200 µg/mL. For the same molecule, the solubility ([1]; 150 mM potassium chloride, saline or isotonic, Potassium chloride (150 mM), read-out: Solubility) was 160 µg/mL, the solubility ([1]; 0.9% saline with 0.125% Tween 80, aqueous with cosolvent or surfactant or cyclodextrin, 0.9% Saline (USP) with 0.125% Tween 80, read-out: Solubility) was > 800 µg/mL and the solubility ([1]; 0.9% saline with 0.5% Tween 80, aqueous with cosolvent or surfactant or cyclodextrin, 0.9% Saline (USP) with 0.5% Tween 80, read-out: Solubility) was > 3500 µg/mL. For the same molecule, the solubility ([1]; 0.9% saline with 1% Tween 20, aqueous with cosolvent or surfactant or cyclodextrin, 0.9% Saline (USP) with 1% Tween 20, maximum solubility not reached, read-out: Solubility) was > 2600 µg/mL, the solubility ([1]; 0.9% saline with 2.5% Tween 80, aqueous with cosolvent or surfactant or cyclodextrin, 0.9% Saline (USP) with 2.5% Tween 80 (polysorbate 80), read-out: Solubility) was > 3500 µg/mL and the solubility ([1]; 0.9% saline with 4% dodecylmaltoside and 1% Tween 20, aqueous with cosolvent or surfactant or cyclodextrin, 0.9% Saline Solution (USP), 4% dodecylmaltoside (DDM), 1% Tween 20, maximum solubility not reached, read-out: Solubility) was > 10000 µg/mL. For the same molecule, the solubility ([1]; 0.9% saline with 7% tetradecylmaltoside, aqueous with cosolvent or surfactant or cyclodextrin, 0.9% Saline Solution (USP), 7% tetradecylmaltoside (TDM), maximum solubility not reached, read-out: Solubility) was > 11000 µg/mL, the Solubility in words ([1]; PBS buffer) was “nearly insoluble” and the solubility ([1]; PBS buffer with 2.5% Tween 80, pH 7.4, aqueous with cosolvent or surfactant or cyclodextrin, read-out: Solubility) was > 4000 µg/mL. The solubility ([1]; Water (USP), maximum solubility not reached, read-out: Solubility) was > 100000 µg/mL, the solubility ([1]; aqueous buffer, 100 mM Tris buffer, pH 7.4, maximum solubility not reached, read-out: Solubility) was > 52000 µg/mL and the solubility ([1]; aqueous buffer, 1:10 diluted PBS buffer, pH 7.4, maximum solubility not reached, read-out: Solubility) was > 2100 µg/mL. For the same molecule, the solubility ([1]; aqueous buffer, 5% Citric Acid, maximum solubility not reached, read-out: Solubility) was > 18600 µg/mL, the solubility ([1]; aqueous buffer, 50-100 mM Acetate buffer, pH 4.5, maximum solubility not reached, read-out: Solubility) was > 45000 µg/mL and the solubility ([1]; aqueous buffer, Phosphate buffered saline (PBS buffer), pH 7.4, read-out: Solubility) was 5 to 7 µg/mL. The solubility ([1]; aqueous with cosolvent or surfactant or cyclodextrin, 0.3% acetic acid, 5% mannitol, 2.5% Tween 80, pH 4.5, maximum solubility not reached, read-out: Solubility) was > 15000 µg/mL, the solubility ([1]; aqueous with cosolvent or surfactant or cyclodextrin, 0.85% Tween 80 in PBS buffer, pH 7.4, maximum solubility not reached, read-out: Solubility) was > 4100 µg/mL and the solubility ([1]; aqueous with cosolvent or surfactant or cyclodextrin, 2.5% Tween 80, 5% mannitol, 0.3% acetic acid, pH 4.5, maximum solubility not reached, read-out: Solubility) was > 16000 µg/mL. For the same molecule, the solubility ([1]; aqueous with cosolvent or surfactant or cyclodextrin, Lactated Ringer's Solution for Injection (USP), prepared from stock in USP water with 0.7% Tween 20, maximum solubility not reached, read-out: Solubility) was > 800 µg/mL, the solubility ([1]; aqueous with cosolvent or surfactant or cyclodextrin, PBS buffer with 1% Tween 20, pH 7.4, maximum solubility not reached, read-out: Solubility) was > 370 µg/mL and the solubility ([1]; saline or isotonic, 0.09% Saline, maximum solubility not reached, read-out: Solubility) was > 1400 µg/mL. For the same molecule, the solubility ([1]; saline or isotonic, 0.225% Saline (USP), maximum solubility not reached, read-out: Solubility) was > 1200 µg/mL, the solubility ([1]; saline or isotonic, 0.45% Saline (USP), maximum solubility not reached, read-out: Solubility) was > 1300 µg/mL and the solubility ([1]; saline or isotonic, 0.9% Saline (USP), read-out: Solubility) was < 180 µg/mL. The solubility ([1]; saline or isotonic, 5% D-Mannitol, maximum solubility not reached, read-out: Solubility) was > 4000 µg/mL, the solubility ([1]; saline or isotonic, 5% Dextrose Solution (USP), maximum solubility not reached, read-out: Solubility) was > 12000 µg/mL and the solubility ([1]; saline or isotonic, 5% dextrose, 5% mannitol and 0.22%-0.45% Sterile Saline Solution, read-out: Solubility (soluble)) was > 1000 µg/mL. For the same molecule, the solubility ([1]; saline or isotonic, Lactated Ringer's Solution for Injection (USP), read-out: Solubility) was < 100 µg/mL, the “Tolerability in vehicle similar to intended clinical formulation” value (cynomolgus monkeys; 10 mg/kg (highest feasible dose), 20-minute IV infusion in vehicle-2 (0.50% Tween 80, 0.76% mannitol, 0.125% sodium lactate in 3.5% dextrose, pH 5.5)) was “can be administered safely” and the “Tolerability of 20-minute versus 60-minute infusion” value (cynomolgus monkeys; single IV infusion 30 mg/kg in vehicle-1 (1.25% Tween 80, 5% mannitol, 0.3% glacial acetic acid, pH 4.5)) was “no differences that could be attributed to the duration of infusion; also recorded: no differences between the tolerability of a 20-minute and 60-minute infusion”. The Clinical observations (cynomolgus monkeys; single IV infusion, 30 mg/kg in vehicle-1 (20 or 60 min) or 10 mg/kg in vehicle-2 (20 min)) was “No other remarkable clinical observations”.
